According to patent US20120016010A1, “RNA Interference Mediated Inhibition of BTB and CNC Homology 1, Basic Leucine Zipper Transcription Factor 1 (BACH1) Gene Expression Using Short Interfering Nucleic Acid (siNA)” (Merck Sharp & Dohme Corp, priority 2009, published 2012):
[invAb] = inverted abasic unit; m = 2'-O-methyl; r = 2'-OH (RNA); f = 2'-fluoro

How the values were obtained:
[1] = test system: Bach1 mRNA; assay: Initial screen: Bach1 mRNA knock-down in human A549 cells (96-well transfection, quantitative RT-PCR); format: cell-based; conditions: Bach1 mRNA, 10 nM siNA, human A549 cells, n = 2, mean ± S.D., normalized to GAPDH and non-targeting control, 24 hrs post-transfection
Procedure: (§1) All cells were obtained from ATCC (Manassas, Va.) unless otherwise indicated. Cells were grown and transfected under standard conditions, which are detailed below for each cell line.
(§2) Cells were plated in all wells of a tissue-culture treated, 96-well plate at a final count of 5000 cells/well in 100 μL of the appropriate culture media. The cells were cultured for 24 hours after plating at 37° C. in the presence of 5% CO2.
(§3) After 24 hours, complexes containing siNA and RNAiMax were created as follows: A solution of RNAiMax diluted 33-fold in OPTI-MEM was prepared. […] After incubation of RNAiMax/OPTI-MEM solution at room temperature for 5 min, an equal volume of the siNA solution and the RNAiMax solution were added together for each of the siNAs.
(§4) This solution was incubated at room temperature for 20 minutes. After incubation, 20 uL of the solution was added to each of the relevant wells. The final concentration of siNA in each well was 10 nM and the final volume of RNAiMax in each well was 0.3 ul. […]
(§5) Briefly, a 60 uL (1 plate) or 110 uL (2 plates) of the Lysis Solution with DNase I was dispensed into each well of the Lysis Buffer Plate (twin.tec full skirt plate). The lysis buffer and stop plates were stored at 4° C. until the cells were washed.
(§6) The plate was spun at 1100 rpm for 5 minutes. The culture medium was aspirated and discarded from the wells of the culture plate. The lysis was performed automatically using a BioMek FX instrument and method. After the Biomek method was completed, the lysis plate was incubated for 2 min at room temperature. The lysis plate can be stored for 2 hours at 4° C., or at −20° C. or −80° C. for two months.
(§7) Each well of the reverse transcription plate required 10 uL of 2× reverse transcriptase Buffer, 1 uL of 20× reverse transcription enzyme and 2 uL of nuclease-free water. The reverse transcription master mix was prepared by mixing 2× reverse transcription buffer, 20× reverse transcription enzyme mix, and nuclease-free water. 13 uL of the reverse transcription master mix was dispensed into each well of the reverse transcription plate (semi-skirted). A separate reverse transcription plate was prepared for each cell plate. The plate was loaded onto a Biomek NX or Biomek FX Dual −96 and the Biomek method was run. The program is programmed to automatically added 7 uL of lysate from the cell lysis procedure described above into each well of the reverse transcription plate. The plate is sealed and spun on a centrifuge (1000 rpm for 30 seconds) to settle the contents to the bottom of the reverse transcription plate. The plate is placed in a thermocycler at 37° C. for 60 min, 95° C. for 5 min, and 4° C. until the plate is removed from the thermocycler. Upon removal, if not used immediately, the plate was frozen at −20° C.
(§8) A series of probes and primers were used to detect the various mRNA transcripts of the genes of Bach1, HMOX-1, and GAPDH in mouse and human cell lines. The assays were performed on an ABI 7900 instrument, according to the manufacturer's instructions. […] The PCR reactions were carried out at 50° C. for 2 min, 95° C. for 20 min followed by 40 cycles at 95° C. for 15 secs and 60° C. for 1 min
(§9) Within each experiment, the […] was set in the exponential phase of the amplification curve, and based on the intersection point of the baselines with the amplification curve, a Ct value was assigned by the instrument.
(§10) The expression level of the gene of interest and % knock-down was calculated using Comparative Ct method:
(§11) ΔCt=ΔCt(Target siRNA)−ΔCt(NTC)
(§12) Relative expression level=2^−ΔΔCt
(§13) The non-targeting control siNA was, unless otherwise indicated, chosen as the value against which to calculate the % knock-down, because it is the most relevant control.

[2] = test system: Bach1 mRNA; assay: Initial screen: Bach1 mRNA knock-down in mouse NIH 3T3 cells (96-well transfection, quantitative RT-PCR); format: cell-based; conditions: mouse NIH3T3 cells, n = 2, 24 hrs post-transfection, protocol 10 nM siNA
Procedure: as §1, §2, §3, §4, §5, §6, §7, §8, §9, §10, §11, §12, §13

Substance | % KD [1] | % KD [2] [%]
29979-DC: Bach1 siNA duplex, target site 1523 (mouse); sense B cGGAcuuucAcAAcucucA TTB (SEQ 107); antisense UGAGAGuuGuGAAAGuccGUU (SEQ 108) (sense CGGACUUUCACAACUCUCATT; antisense UGAGAGUUGUGAAAGUCCGUU; sense: DNA at AGT, 2'-fluoro at CU, [invAb] at 5' end, 3' end, backbone not given here; antisense: sugars from the 5' end rrrmmmffmfmmmmmfffmmm, backbone not given here) | −18.1 ± 18^ % | 62.4 ± 2.6
29974-DC: Bach1 siNA duplex, target site 1739 (mouse); sense B GAGGuGAAGcuGccAuucA TTB (SEQ 97); antisense UGAAuGGcAGcuucAccucUU (SEQ 98) (sense GAGGUGAAGCUGCCAUUCATT; antisense UGAAUGGCAGCUUCACCUCUU; sense: DNA at AGT, 2'-fluoro at CU, [invAb] at 5' end, 3' end, backbone not given here; antisense: sugars from the 5' end rrrmfmmfmmffffmffffmm, backbone not given here) | −4.3 ± 15.5% | −12 ± 6.9
29977-DC: Bach1 siNA duplex, target site 1640 (mouse); sense B GAGccuuGcccGuAuGcuu TTB (SEQ 103); antisense AAGcAuAcGGGcAAGGcucUU (SEQ 104) (sense GAGCCUUGCCCGUAUGCUUTT; antisense AAGCAUACGGGCAAGGCUCUU; sense: DNA at AGT, 2'-fluoro at CU, [invAb] at 5' end, 3' end, backbone not given here; antisense: sugars from the 5' end rrrfmfmfmmmfmmmmfffmm, backbone not given here) | 18.9 ± 0.3% | 53 ± 2.9
29983-DC: Bach1 siNA duplex, target site 363; sense B GAuuuGAAccuuuAAuucA TTB (SEQ 115); antisense UGAAuuAAAGGuucAAAucUU (SEQ 116) (sense GAUUUGAACCUUUAAUUCATT; antisense UGAAUUAAAGGUUCAAAUCUU; sense: DNA at AGT, 2'-fluoro at CU, [invAb] at 5' end, 3' end, backbone not given here; antisense: sugars from the 5' end rrrmffmmmmmfffmmmffmm, backbone not given here) | 74.7 ± 1.8% | 49 ± 2
29966-DC: Bach1 siNA duplex, target site 1375; sense B GGccAAAGAuGGcucAGAA TTB (SEQ 81); antisense UUCuGAGccAucuuuGGccUU (SEQ 82) (sense GGCCAAAGAUGGCUCAGAATT; antisense UUCUGAGCCAUCUUUGGCCUU; sense: DNA at AGT, 2'-fluoro at CU, [invAb] at 5' end, 3' end, backbone not given here; antisense: sugars from the 5' end rrrfmmmffmfffffmmffmm, backbone not given here) | 57.3 ± 5.9% | −12.7 ± 7.4
29949-DC: Bach1 siNA duplex, target site 664; sense B GuGuAAAcuccGcAGGuAu TTB (SEQ 47); antisense AUAccuGcGGAGuuuAcAcUU (SEQ 48) (sense GUGUAAACUCCGCAGGUAUTT; antisense AUACCUGCGGAGUUUACACUU; sense: DNA at AGT, 2'-fluoro at CU, [invAb] at 5' end, 3' end, backbone not given here; antisense: sugars from the 5' end rrrfffmfmmmmfffmfmfmm, backbone not given here) | 25 ± 1.4% | −7.1 ± 5.2
29963-DC: Bach1 siNA duplex, target site 362; sense B GGAuuuGAAccuuuAAuuc TTB (SEQ 75); antisense GAAuuAAAGGuucAAAuccUU (SEQ 76) (sense GGAUUUGAACCUUUAAUUCTT; antisense GAAUUAAAGGUUCAAAUCCUU; sense: DNA at AGT, 2'-fluoro at CU, [invAb] at 5' end, 3' end, backbone not given here; antisense: sugars from the 5' end rrrffmmmmmfffmmmfffmm, backbone not given here) | 32.9 ± 3.4% | 18.5 ± 2.2
29954-DC: Bach1 siNA duplex, target site 1389; sense B cAGAAcAGAucucAcAGAA TTB (SEQ 57); antisense UCCuGuGAGAucuGuucuGUU (SEQ 58) (sense CAGAACAGAUCUCACAGAATT; antisense UCCUGUGAGAUCUGUUCUGUU; sense: DNA at AGT, 2'-fluoro at CU, [invAb] at 5' end, 3' end, backbone not given here; antisense: sugars from the 5' end rrrfmfmmmmfffmffffmmm, backbone not given here) | 63.4 ± 0.9% | −10.2 ± 10.1
29987-DC: Bach1 siNA duplex, target site 1313; sense B GGcuucuGGAGuGAcAuuu TTB (SEQ 123); antisense AAAuGucAcuccAGAAGccUU (SEQ 124) (sense GGCUUCUGGAGUGACAUUUTT; antisense AAAUGUCACUCCAGAAGCCUU; sense: DNA at AGT, 2'-fluoro at CU, [invAb] at 5' end, 3' end, backbone not given here; antisense: sugars from the 5' end rrrfmffmffffmmmmmffmm, backbone not given here) | 16 ± 0.2% | −16.1 ± 11.6
29972-DC: Bach1 siNA duplex, target site 1262 (mouse); sense B GAuuuAuAucuGAAGucuA TTB (SEQ 93); antisense UAGAcuucAGAuAuAAAucUU (SEQ 94) (sense GAUUUAUAUCUGAAGUCUATT; antisense UAGACUUCAGAUAUAAAUCUU; sense: DNA at AGT, 2'-fluoro at CU, [invAb] at 5' end, 3' end, backbone not given here; antisense: sugars from the 5' end rrrmffffmmmfmfmmmffmm, backbone not given here) | −3.3 ± 27.4% | 71.7 ± 5.5
29953-DC: Bach1 siNA duplex, target site 1096; sense B cAcAuAuGAccAAuAuGGu TTB (SEQ 55); antisense ACCAuAuuGGucAuAuGuGUU (SEQ 56) (sense CACAUAUGACCAAUAUGGUTT; antisense ACCAUAUUGGUCAUAUGUGUU; sense: DNA at AGT, 2'-fluoro at CU, [invAb] at 5' end, 3' end, backbone not given here; antisense: sugars from the 5' end rrrmfmffmmffmfmfmfmmm, backbone not given here) | 24 ± 14.1% | −11 ± 3.3
